Read-outs that look alike come from different tables or passages of the source.
How the values were obtained:
Type in all cases: cell-based
(α4)3(β2)2 nAChR = molecular target: T1, (α4)3(β2)2 nAChR (Homo sapiens, UniProt P17787+P43681); test: Two-electrode voltage-clamp whole-cell currents, Xenopus oocytes expressing WT (α4)3(β2)2 nAChR
T1 construct: expressed in transfected cells; host or cells: Xenopus laevis oocytes injected with cRNA, 8:1 α4:β2
Experimental: (§1) Oocytes-positive female Xenopus laevis were purchased from NASCO, and all procedures were performed according to an animal use protocol approved by the Institutional Animals Care and Use Committee of The University of Texas Health Science Center at Tyler. Ovarian lobules were surgically harvested, treated with collagenase type 2, and Stage V and VI oocytes were visually selected and maintained at 18 °C in modified ND96-gentamicin buffer (96 mM NaCl, 2 mM KCl, 1.8 mM CaCl2, 1 mM MgCl2, 5 mM Hepes, and 50 μg/ml gentamicin, pH 7.6).
(§2) pSP64 Poly(A) plasmids with cDNA encoding for human α4 or β2 nAChR subunit were used to prepare cRNA transcripts suitable for oocyte expression. The plasmids were linearized with AseI (hα4) and PvuII (hβ2), then cRNA transcripts were prepared in vitro using mMESSAGE mMACHINE high yield-capped RNA transcription kits (Ambion, Thermo Fisher Scientific), purified on NucAway Spin column (Invitrogen, Thermo Fisher Scientific), and stored at −80 °C until used. Point mutations within the plasmid encoding the α4 nAChR subunit were introduced using QuikChange II Site-Directed Mutagenesis Kit (Agilent Technologies), as described previously ([28]). To generate amino acid substitutions (K64T, E66I, H116V, H116L, and H116A), two custom-designed complementary oligos containing the desired mutation were used (Integrated DNA Technologies). The forward primers were as the following with the codon for mutated amino acids are underlined and nucleotide(s) changes are bolded and italicized:
(§3) The oocytes were injected with 10 to 50 ng of a cRNA mix containing α4 (WT or mutant) and β2 RNAs at ratios of 8:1(α4:β) or 1:8 (α4:β2) to bias expression toward (α4)3(β2)2 or (α4)2(β2)3 nAChRs, respectively. The injection of oocytes with RNAs mixture containing four folds or higher α4 RNA than β2 RNA have been established to express receptor population that is made up of three α4 and two β2 subunits ([9], [12], [28], [43], [44], [45]).
(§4) 24 to 72 h after cRNA injection, Xenopus oocytes were placed in a custom-made recording chamber that is connected to an eight-channel automated perfusion system (Warner Instruments) and perfused with recording buffer (100 mM NaCl, 2 mM KCl, 1 mM CaCl2, 0.8 mM MgCl2, 1 mM EGTA, and 10 mM Hepes, pH 7.5). Unless otherwise specified in figure legends, each recording run included several drug applications (10 s of an agonist with or without CMPI or NS9283) separated by 3 to 4 min buffer wash intervals. Between recording runs, the oocytes were washed with recording buffer for at last 5 min. The oocytes were voltage-clamped at −50 mV using Oocyte Clamp OC-725B (Warner Instruments). The currents were digitized using Digidata 1550A (Axon Instruments, Molecular Devices), and the peak currents were quantified using pCLAMP 10 (Axon Instruments), then normalized and analyzed using Excel 2010 (Microsoft) and SigmaPlot 11.0 (Systat Software). For NS9283 and CMPI potentiation of agonist-induced responses, the peak currents were normalized to current elicited by agonist alone applied within the same recording run. For the effect of coapplication of 1 μM NS9283 or CMPI on agonist concentration-response curve, the peak currents were normalized to current elicited by saturating concentration of agonist applied within the same recording run. […] I0 = 100 for NS9283 and CMPI potentiation of agonist-induced responses and I0 = 0 for agonist concentration-response experiments. The best-fit values for Imax and EC50 ± SD are presented.

(α4H116A)3(β2)2 nAChR [1] = molecular target: T2, (α4H116A)3(β2)2 nAChR (Homo sapiens, UniProt P17787+P43681, H142A); test: Two-electrode voltage-clamp, oocytes expressing (α4H116A)3(β2)2 nAChR
T2 construct: expressed in transfected cells; host or cells: Xenopus laevis oocytes injected with cRNA, 8:1 α4:β2
Experimental: as §1, §2, §3, §4

(α4K64T)3(β2)2 nAChR = molecular target: T3, (α4K64T)3(β2)2 nAChR (Homo sapiens, UniProt P17787+P43681, K90T); test: Two-electrode voltage-clamp, oocytes expressing (α4K64T)3(β2)2 nAChR
T3 construct: expressed in transfected cells; host or cells: Xenopus laevis oocytes injected with cRNA, 8:1 α4:β2
Experimental: as §1, §2, §3
(§5) 24 to 72 h after cRNA injection, Xenopus oocytes were placed in a custom-made recording chamber that is connected to an eight-channel automated perfusion system (Warner Instruments) and perfused with recording buffer (100 mM NaCl, 2 mM KCl, 1 mM CaCl2, 0.8 mM MgCl2, 1 mM EGTA, and 10 mM Hepes, pH 7.5). Unless otherwise specified in figure legends, each recording run included several drug applications (10 s of an agonist with or without CMPI or NS9283) separated by 3 to 4 min buffer wash intervals. Between recording runs, the oocytes were washed with recording buffer for at last 5 min. […] The currents were digitized using Digidata 1550A (Axon Instruments, Molecular Devices), and the peak currents were quantified using pCLAMP 10 (Axon Instruments), then normalized and analyzed using Excel 2010 (Microsoft) and SigmaPlot 11.0 (Systat Software). […]

(α4E66I)3(β2)2 nAChR = molecular target: T4, (α4E66I)3(β2)2 nAChR (Homo sapiens, UniProt P17787+P43681, E92I); test: Two-electrode voltage-clamp, oocytes expressing (α4E66I)3(β2)2 nAChR
T4 construct: expressed in transfected cells; host or cells: Xenopus laevis oocytes injected with cRNA, 8:1 α4:β2
Experimental: as §1, §2, §3, §5

(α4H116L)3(β2)2 nAChR = molecular target: T5, (α4H116L)3(β2)2 nAChR (Homo sapiens, UniProt P17787+P43681, H142L); test: Two-electrode voltage-clamp, oocytes expressing (α4H116L)3(β2)2 nAChR
T5 construct: expressed in transfected cells; host or cells: Xenopus laevis oocytes injected with cRNA, 8:1 α4:β2
Experimental: as §1, §2, §3, §5

(α4H116V)3(β2)2 nAChR = molecular target: T6, (α4H116V)3(β2)2 nAChR (Homo sapiens, UniProt P17787+P43681, H142V); test: Two-electrode voltage-clamp, oocytes expressing (α4H116V)3(β2)2 nAChR
T6 construct: expressed in transfected cells; host or cells: Xenopus laevis oocytes injected with cRNA, 8:1 α4:β2
Experimental: as §1, §2, §3, §5

(α4H116A)3(β2)2 nAChR [2] = molecular target: T2, (α4H116A)3(β2)2 nAChR; test: Mechanistic (Monod-Wyman-Changeux two-state model) analysis of current responses, (α4H116A)3(β2)2 nAChR; details: α4:α4 site; for Kd: read-out: KR,CMPI
Experimental: Further analysis of electrophysiological data was conducted in the framework of the two-state concerted transition model, adapted from the MWC cyclic model originally used to describe enzyme function ([31], [32], [33]). The raw peak amplitudes of current responses were converted to units of probability of being in the active state (PA).
The numbers of α4:β2 and α4:α4 binding sites (Nα4:β2 and Nα4:α4) were constrained to 2 and 1, respectively.
The concentration-response curve for TC-2559 was fitted to the following equation:(3) PA=1/1+L[1+[TC-2559]/KR,TC-2559,α4:β2/1+[TC-2559]/(KR,TC-2559,α4:β2cTC-2559,α4:β2)]^Nα4:β2
The concentration-response data were analyzed using Equation 3, with the value of L modified to reflect receptor activation by TC-2559, and the affinity and efficacy terms in the equation reflecting the values for CMPI. The number of binding sites for CMPI in Equation 3 was constrained to 1.
Curve fitting was done using Origin 2020 (OriginLab Corp). The results are reported as best-fit parameter ±SD of the fit. All data are included in the analysis.

[3] = background of activity elicited by ACh
[4] = background of activity elicited by TC-2559

T1 sequence (P43681 27-627): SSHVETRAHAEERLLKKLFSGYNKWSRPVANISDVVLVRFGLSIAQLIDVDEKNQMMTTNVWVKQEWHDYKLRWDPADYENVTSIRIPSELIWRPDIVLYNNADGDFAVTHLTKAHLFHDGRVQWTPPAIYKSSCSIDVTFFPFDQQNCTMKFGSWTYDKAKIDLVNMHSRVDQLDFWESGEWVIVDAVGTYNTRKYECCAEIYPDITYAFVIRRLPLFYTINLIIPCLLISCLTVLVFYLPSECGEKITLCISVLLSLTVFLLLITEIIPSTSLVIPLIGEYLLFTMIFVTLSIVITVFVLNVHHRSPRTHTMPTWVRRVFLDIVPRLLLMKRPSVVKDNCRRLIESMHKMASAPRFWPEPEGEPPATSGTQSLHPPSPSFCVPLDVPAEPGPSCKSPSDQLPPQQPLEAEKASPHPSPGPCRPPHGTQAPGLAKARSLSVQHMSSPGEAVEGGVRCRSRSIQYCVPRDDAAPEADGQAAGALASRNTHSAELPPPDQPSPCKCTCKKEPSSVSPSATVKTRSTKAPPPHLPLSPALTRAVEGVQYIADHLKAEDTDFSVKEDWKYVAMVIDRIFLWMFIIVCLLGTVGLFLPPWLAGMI
T1 sequence (P17787 26-502): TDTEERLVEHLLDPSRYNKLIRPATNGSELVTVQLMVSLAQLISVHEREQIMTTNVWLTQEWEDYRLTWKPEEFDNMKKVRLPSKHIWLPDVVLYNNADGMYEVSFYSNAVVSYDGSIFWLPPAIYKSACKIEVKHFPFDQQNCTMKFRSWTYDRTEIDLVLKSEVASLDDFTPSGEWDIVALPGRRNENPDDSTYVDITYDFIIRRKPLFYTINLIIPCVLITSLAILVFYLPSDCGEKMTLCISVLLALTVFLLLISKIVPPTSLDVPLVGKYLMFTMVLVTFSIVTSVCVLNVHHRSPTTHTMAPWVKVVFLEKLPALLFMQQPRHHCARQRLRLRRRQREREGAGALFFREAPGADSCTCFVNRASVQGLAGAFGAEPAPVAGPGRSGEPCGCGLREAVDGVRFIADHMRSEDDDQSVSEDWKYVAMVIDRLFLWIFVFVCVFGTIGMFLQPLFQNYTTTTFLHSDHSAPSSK
T2 sequence (P43681 27-627 H142A): as the sequence (P43681 27-627) above, with H116A counted along it
T2 sequence (P17787 26-502): as the sequence (P17787 26-502) above
T5 sequence (P43681 27-627 H142L): as the sequence (P43681 27-627) above, with H116L counted along it
T5 sequence (P17787 26-502): as the sequence (P17787 26-502) above
T3 sequence (P43681 27-627 K90T): as the sequence (P43681 27-627) above, with K64T counted along it
T3 sequence (P17787 26-502): as the sequence (P17787 26-502) above
T6 sequence (P43681 27-627 H142V): as the sequence (P43681 27-627) above, with H116V counted along it
T6 sequence (P17787 26-502): as the sequence (P17787 26-502) above
T4 sequence (P43681 27-627 E92I): as the sequence (P43681 27-627) above, with E66I counted along it
T4 sequence (P17787 26-502): as the sequence (P17787 26-502) above

- maximal potentiation ((α4)3(β2)2 nAChR; 1 μM TC-2559): 880 ± 13%
- maximal potentiation equivalent, % of current elicited by 1 mM ACh ((α4)3(β2)2 nAChR; 1 μM TC-2559 + CMPI): 44.6%
- maximal potentiation, % of control ((α4)3(β2)2 nAChR; 1 μM cytisine): 716 ± 59%
- effect on responses to agonists at subsaturating concentrations ((α4)3(β2)2 nAChR; 1 μM modulator, ACh, nicotine, cytisine, TC-2559, p < 0.001): potentiated
- effect on responses to saturating concentrations of the tested agonists ((α4)3(β2)2 nAChR; 1 μM modulator, except for TC-2559): did not potentiate
- maximal potentiation, % of control ((α4)3(β2)2 nAChR; 1 μM nicotine): 618 ± 34%
- maximal potentiation ((α4)3(β2)2 nAChR; 10 μM TC-2559): 634 ± 94%
- maximal potentiation equivalent, % of current elicited by 1 mM ACh ((α4)3(β2)2 nAChR; 10 μM TC-2559 + CMPI): 48.4%
- potentiation fold (Ave ± SD), agonist + 1 μM modulator / agonist alone ((α4)3(β2)2 nAChR; ACh (1 mM), 1 μM modulator): 0.81 ± 0.15
- potentiation fold (Ave ± SD), agonist + 1 μM modulator / agonist alone ((α4)3(β2)2 nAChR; TC 2559 (30 μM), 1 μM modulator): 6.41 ± 2.15
- EC50 ((α4)3(β2)2 nAChR; receptors activated by 1 μM cytisine, read-out: EC50 for potentiation): 340 ± 80 nM
- EC50 ((α4)3(β2)2 nAChR; receptors activated by 1 μM nicotine, read-out: EC50 for potentiation): 270 ± 40 nM
- EC50 ((α4)3(β2)2 nAChR; responses induced by 1 μM TC-2559, read-out: potentiation EC50): 110 ± 10 nM
- EC50 ((α4)3(β2)2 nAChR; responses induced by 10 μM TC-2559, read-out: potentiation EC50): 90 ± 40 nM
- potentiation fold (Ave ± SD), agonist + 1 μM modulator / agonist alone ((α4H116A)3(β2)2 nAChR [1]; ACh (1 mM)): 1.07 ± 0.13
- potentiation fold (Ave ± SD), agonist + 1 μM modulator / agonist alone ((α4H116A)3(β2)2 nAChR [1]; TC 2559 (30 μM)): 0.74 ± 0.13
- Imax of potentiation, % of control ((α4H116A)3(β2)2 nAChR [1]; TC-2559-induced current, normalized to 1 μM TC-2559): 634 ± 77%
- EC50 ((α4H116A)3(β2)2 nAChR [1]; normalized to 1 μM TC-2559, read-out: EC50 of potentiation of TC-2559-induced current): 200 ± 100 nM
- potentiation fold (Ave ± SD), agonist + 1 μM modulator / agonist alone ((α4K64T)3(β2)2 nAChR; ACh (1 mM)): 0.91 ± 0.08
- potentiation fold (Ave ± SD), agonist + 1 μM modulator / agonist alone ((α4K64T)3(β2)2 nAChR; TC 2559 (30 μM)): 1.17 ± 0.21
- potentiation fold (Ave ± SD), agonist + 1 μM modulator / agonist alone ((α4E66I)3(β2)2 nAChR; ACh (1 mM)): 0.83 ± 0.10
- potentiation fold (Ave ± SD), agonist + 1 μM modulator / agonist alone ((α4E66I)3(β2)2 nAChR; TC 2559 (30 μM)): 0.99 ± 0.15
- potentiation fold (Ave ± SD), agonist + 1 μM modulator / agonist alone ((α4H116L)3(β2)2 nAChR; ACh (1 mM)): 0.82 ± 0.05
- potentiation fold (Ave ± SD), agonist + 1 μM modulator / agonist alone ((α4H116L)3(β2)2 nAChR; TC 2559 (30 μM)): 4.58 ± 0.24
- potentiation fold (Ave ± SD), agonist + 1 μM modulator / agonist alone ((α4H116V)3(β2)2 nAChR; ACh (1 mM)): 0.76 ± 0.05
- potentiation fold (Ave ± SD), agonist + 1 μM modulator / agonist alone ((α4H116V)3(β2)2 nAChR; TC 2559 (30 μM)): 3.01 ± 0.39
- cCMPI ((α4H116A)3(β2)2 nAChR [2]; [3]): 0.082 ± 0.007
- Kd ((α4H116A)3(β2)2 nAChR [2]; [3]): 440 ± 120 nM
- cCMPI ((α4H116A)3(β2)2 nAChR [2]; [4]): 0.099 ± 0.009
- Kd ((α4H116A)3(β2)2 nAChR [2]; [4]): 230 ± 80 nM
SMILES: Cc1c(-c2cc(-c3ccccc3Cl)no2)cnn1C1CCNCC1 [CMPI, 3-(2-chlorophenyl)-5-(5-methyl-1-(piperidin-4-yl)-1H-pyrrazol-4-yl)isoxazole]
